Data: patent publication US10426762B2, “Inhibitors of hepatitis C virus polymerase” (COCRYSTAL DISCOVERY, INC., priority 2012, dated 2019)

Key:
[1] = target: T1, HCV1b NS5B polymerase delta 21 (Hepatitis C virus genotype 1b, UniProt P26663); test: RNA-dependent RNA HCV NS5B (polymerase) assay and IC50 determination; format: biochemical
T1 construct: purified HCV1b NS5B polymerase delta 21
Experimental: Example 212—RNA-Dependent RNA HCV NS5B (Polymerase) Assay and IC50 Determination
In vitro RNA-dependent RNA polymerase activity was determined in a reaction mixture (50 μL) containing 50 mM Tris-HCl, pH 7.5, 5 mM MgCl2, 1 mM dithiothreitol, 0.5% Triton® X-100, 10 μM of UTP, 0.1-0.5 μCi of α-^32P UTP (Perkin Elmer Life Sciences), 1 μg of polyA:U16 (Midland Oligo), and 0.6 μg of purified HCV1b NS5B polymerase delta 21. Different concentrations of compounds were added to the reaction mixtures. The reaction was carried out at RT (23° C.) for 60 min and then stopped by the addition of 100 μL of 50 mM EDTA. The reaction mixtures were filtered through either a DE81 membrane or a positively charged nylon membrane, and the membranes were then extensively washed with 30 mM sodium citrate, pH 7.0 and 300 mM NaCl. The radiolabeled RNA products were quantitated using a Storm™ PhosphorImager™ (GE life Sciences). IC50 values were calculated using GraFit 6 and GraphPad Prism 5 from triplicate assays.

HCV1b replicon = test: HCV replicon assay (Huh-7 cell line with HCV1b replicon containing luciferase reporter) and EC50 determination; format: cell-based; settings: Hepatitis C virus, Huh-7 HCV1b replicon luciferase reporter, 72 hr, triplicate
Experimental: Example 213—HCV Replicon Assay and EC50 Determination
The antiviral activity of compounds against hepatitis C virus was determined by a hepatitis C virus replicon reporter cell line developed by Bartenschlager (Lohmann et al., Science 1999, 285:110-113; Bartenschlager et al., Antiviral Res 2003, 60:91-102). This cell-based assay utilized a liver cell carcinoma (Huh-7) cell line stably transformed with an HCV1b replicon containing a luciferase reporter gene. Varied concentrations of compounds were added to the reporter cell line, and further incubated at 37° C. for 72 hr in DMEM supplemented with 10% FCS. The inhibitory effects of experimental compounds or the reference compound, interferon alpha (INFα), on HCV replication were measured by luciferase activity using the Britelite™ plus luminescence reporter gene kit (Perkin Elmer, Shelton, Conn.). The Britelite plus reagent was added to the 96-well plates containing the HCV reporter cells, and luminescence was measured within 15 min using a Wallac 1450 Microbeta® Trilux liquid scintillation counter. EC50 values were calculated using GraFit 6 and GraphPad Prism 5 from triplicate HCV replicon assays.

T1 sequence (P26663 2420-2989): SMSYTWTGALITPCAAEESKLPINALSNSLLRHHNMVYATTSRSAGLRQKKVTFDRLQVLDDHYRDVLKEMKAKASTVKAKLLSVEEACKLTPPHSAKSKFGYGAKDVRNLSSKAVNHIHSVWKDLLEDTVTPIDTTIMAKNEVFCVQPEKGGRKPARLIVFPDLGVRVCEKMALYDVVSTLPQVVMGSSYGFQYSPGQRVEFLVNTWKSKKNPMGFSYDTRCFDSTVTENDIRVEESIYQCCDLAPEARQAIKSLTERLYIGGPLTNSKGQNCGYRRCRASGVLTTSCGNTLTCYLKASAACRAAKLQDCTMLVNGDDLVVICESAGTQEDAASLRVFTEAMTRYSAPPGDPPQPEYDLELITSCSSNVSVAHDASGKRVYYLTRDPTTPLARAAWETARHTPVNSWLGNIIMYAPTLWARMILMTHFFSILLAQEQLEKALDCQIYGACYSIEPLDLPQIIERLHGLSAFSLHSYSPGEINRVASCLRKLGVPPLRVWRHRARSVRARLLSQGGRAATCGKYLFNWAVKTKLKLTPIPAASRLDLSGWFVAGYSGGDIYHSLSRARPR

Compound | IC50 [1] [µM] | also measured
CCCCCC1=C(c2cc(-c3ccccc3)sc2C(=O)O)CCN(C)C1 [Example 209, 3-(1-Methyl-5-pentyl-1,2,3,6-tetrahydro-pyridin-4-yl)-5-phenyl-thiophene-2-carboxylic acid] | 3 to 10 | 
COc1ccn2nc(-c3ccc(-c4cc(C5=C(C6CCC(C)CC6)CN(C)CC5)c(C(=O)O)s4)cc3)cc2n1 (centres unmarked) [Example 184, 5-(4-(5-methoxypyrazolo[1,5-a]pyrimidin-2-yl)phenyl)-3-(1-methyl-5-(4-methylcyclohexyl)-1,2,3,6-tetrahydropyridin-4-yl)thiophene-2-carboxylic acid] | < 3 | 
Cc1cc(-c2cc(C3=C(C4CCC(C)CC4)CN(C)CC3)c(C(=O)O)s2)ccc1-c1cc2ncccn2n1 (centres unmarked) [Example 187, 5-(3-methyl-4-(pyrazolo[1,5-a]pyrimidin-2-yl)phenyl)-3-(1-methyl-5-(4-methylcyclohexyl)-1,2,3,6-tetrahydropyridin-4-yl)thiophene-2-carboxylic acid] | < 3 | 
CC1CCC(C2=C(c3cc(-c4ccc(NC(=O)c5cscn5)c(Cl)c4)sc3C(=O)O)CCN(C)C2)CC1 (centres unmarked) [Example 182, 5-(3-chloro-4-(thiazole-4-carboxamido)phenyl)-3-(1-methyl-5-(4-methylcyclohexyl)-1,2,3,6-tetrahydropyridin-4-yl)thiophene-2-carboxylic acid] | < 3 | 
CC1CCC(C2=C(c3cc(-c4ccc(N)nc4)sc3C(=O)O)CCN(C)C2)CC1 (centres unmarked) [Example 203, 5-(6-aminopyridin-3-yl)-3-(1-methyl-5-(4-methylcyclohexyl)-1,2,3,6-tetrahydropyridin-4-yl)thiophene-2-carboxylic acid] | < 3 | 
COc1cc(-c2cc(C3=C(C4CCC(C)CC4)CN(C)CC3)c(C(=O)O)s2)ccc1NC(=O)c1cscn1 (centres unmarked) [Example 179, 5-(3-methoxy-4-(thiazole-4-carboxamido)phenyl)-3-(1-methyl-5-(4-methylcyclohexyl)-1,2,3,6-tetrahydropyridin-4-yl)thiophene-2-carboxylic acid] | < 3 | 
CN1CCC(c2cc(-c3ccc(NC(=O)c4cscn4)cc3)sc2C(=O)O)=C(C2CCCCC2)C1 [Example 205, 3-(5-Cyclohexyl-1-methyl-1,2,3,6-tetrahydro-pyridin-4-yl)-5-{4-[(thiazole-4-carbonyl)-amino]-phenyl}-thiophene-2-carboxylic acid] |  | EC50 (HCV1b replicon; Table 2): < 3 µM
CC1CCC(C2=C(c3cc(-c4ccc(NC(=O)c5cscn5)nc4)sc3C(=O)O)CCN(C)C2)CC1 (centres unmarked) [Example 204, 3-(1-methyl-5-(4-methylcyclohexyl)-1,2,3,6-tetrahydropyridin-4-yl)-5-(6-(thiazole-4-carboxamido)pyridin-3-yl)thiophene-2-carboxylic acid] |  | EC50 (HCV1b replicon; Table 1): < 3 µM
Cc1nn(C)cc1CN1CCC(C2CCC(C)CC2)=C(c2cc(-c3ccc(NC(=O)c4cscn4)cc3)sc2C(=O)O)C1 (centres unmarked) [Example 195, 3-(1-((1,3-dimethyl-1H-pyrazol-4-yl)methyl)-4-(4-methylcyclohexyl)-1,2,5,6-tetrahydropyridin-3-yl)-5-(4-(thiazole-4-carboxamido)phenyl)thiophene-2-carboxylic acid] |  | EC50 (HCV1b replicon; Table 2): < 3 µM
CC1CCC(C2=C(c3cc(-c4ccc(-c5cc6ncccn6n5)cc4)sc3C(=O)O)CN(Cc3cnn(C)c3)CC2)CC1 (centres unmarked) [Example 194, 3-(1-((1-methyl-1H-pyrazol-4-yl)methyl)-4-(4-methylcyclohexyl)-1,2,5,6-tetrahydropyridin-3-yl)-5-(4-(pyrazolo[1,5-a]pyrimidin-2-yl)phenyl)thiophene-2-carboxylic acid] |  | EC50 (HCV1b replicon; Table 2): < 3 µM
CC1CCC(C2=C(c3cc(-c4ccc(NC(=O)c5cscn5)c(C(F)(F)F)c4)sc3C(=O)O)CCN(C)C2)CC1 (centres unmarked) [Example 183, 3-(1-methyl-5-(4-methylcyclohexyl)-1,2,3,6-tetrahydropyridin-4-yl)-5-(4-(thiazole-4-carboxamido)-3-(trifluoromethyl)phenyl)thiophene-2-carboxylic acid] |  | EC50 (HCV1b replicon; Table 1): < 3 µM
